In PubChem BioAssay AID330 (DTP/NCI, 2004):
Values joined by “and” are separate entries in the source; they are usually repeats but may differ in a detail not shown here. Equal entries are not always repeated. Inconclusive results and toxic doses are left out.

Test system: P388 leukemia ip, CD2F1 mice, survival T/C
Experiment: NCI In Vivo Anticancer Drug Screen. Data for tumor model P388 Leukemia (intraperitoneal) in CD2F1 (CDF1) mice
Conditions: endpoint: median survival time, higher = longer survival
Outline: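 Mice carrying the transplanted tumor received test compound or vehicle. Survival was recorded in each group, and the value is the treated-group measurement divided by that of the vehicle-treated control group.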

[1] = dose: 200.0 mg/kg/injection, schedule: Q01DX005 (ip), vehicle: saline with Tween-80
[2] = dose: 100.0 mg/kg/injection, schedule: Q01DX001 (ip), vehicle: saline with Tween-80
[3] = dose: 50.0 mg/kg/injection, schedule: Q01DX005 (ip), vehicle: Klucel (hydroxypropylcellulose) (HPC)
[4] = dose: 100.0 mg/kg/injection, schedule: Q01DX005 (ip), vehicle: Klucel (hydroxypropylcellulose) (HPC)

Q: What does the source list for `NS(=O)(=O)OCCCCCCCOS(N)(=O)=O`?
A: T/C (dose: 6.0 mg/kg/injection, schedule: Q01DX005 (iv), vehicle: other): 109 % of control; T/C (dose: 6.7 mg/kg/injection, schedule: Q04DX003 (ip), vehicle: other): 121 % of control; T/C (dose: 8.98 mg/kg/injection, schedule: Q01DX005 (ip), vehicle: other): 122 % of control; T/C (dose: 8.98 mg/kg/injection, schedule: Q01DX005 (iv), vehicle: other): 112 % of control; T/C (dose: 10.0 mg/kg/injection, schedule: Q04DX003 (ip), vehicle: other): 119 % of control; T/C (dose: 11.0 mg/kg/injection, schedule: Q03HX009 (ip), vehicle: other): 160 % of control; T/C (dose: 13.4 mg/kg/injection, schedule: Q01DX005 (iv), vehicle: other): 118 % of control; T/C (dose: 16.5 mg/kg/injection, schedule: Q03HX009 (ip), vehicle: other): 171 % of control; T/C (dose: 16.67 mg/kg/injection, schedule: Q01DX009 (ip), vehicle: other): 168 % of control; T/C (dose: 20.0 mg/kg/injection, schedule: Q01DX001 (iv), vehicle: other): 105 % of control; T/C (dose: 20.0 mg/kg/injection, schedule: Q01DX005 (ip), vehicle: other): 150 % of control and 159 % of control; T/C (dose: 22.5 mg/kg/injection, schedule: Q03HX003 (ip), vehicle: other): 158 % of control; T/C (dose: 24.9 mg/kg/injection, schedule: Q01DX009 (ip), vehicle: other): 184 % of control; T/C (dose: 25.0 mg/kg/injection, schedule: Q01DX005 (ip), vehicle: saline with Tween-80): 152 % of control and 163 % of control; T/C (dose: 25.0 mg/kg/injection, schedule: Q03HX009 (ip), vehicle: other): 206 % of control; T/C (dose: 30.0 mg/kg/injection, schedule: Q01DX001 (ip), vehicle: other): 124 % of control; T/C (dose: 30.0 mg/kg/injection, schedule: Q01DX001 (iv), vehicle: other): 111 % of control; T/C (dose: 30.0 mg/kg/injection, schedule: Q01DX005 (ip), vehicle: other): 161 % of control and 181 % of control; T/C (dose: 33.3 mg/kg/injection, schedule: Q04DX003 (ip), vehicle: other): 164 % of control; T/C (dose: 34.0 mg/kg/injection, schedule: Q03HX003 (ip), vehicle: other): 174 % of control; T/C (dose: 37.0 mg/kg/injection, schedule: Q03HX009 (ip), vehicle: other): 232 % of control; T/C (dose: 37.2 mg/kg/injection, schedule: Q01DX009 (ip), vehicle: other): 222 % of control; T/C (dose: 37.2 mg/kg/injection, schedule: Q01DX009 (oral), vehicle: other): 124 % of control; T/C (dose: 44.0 mg/kg/injection, schedule: Q01DX005 (ip), vehicle: other): 192 % of control; T/C (dose: 44.89 mg/kg/injection, schedule: Q01DX005 (ip), vehicle: other): 194 % of control; T/C (dose: 44.9 mg/kg/injection, schedule: Q01DX001 (iv), vehicle: other): 112 % of control; T/C (dose: 50.0 mg/kg/injection, schedule: Q03HX003 (ip), vehicle: other): 210 % of control; T/C (dose: 50.0 mg/kg/injection, schedule: Q04DX003 (ip), vehicle: other): 185 % of control; T/C (dose: 55.6 mg/kg/injection, schedule: Q01DX009 (ip), vehicle: other): 123 % of control; T/C (dose: 67.0 mg/kg/injection, schedule: Q01DX001 (ip), vehicle: other): 151 % of control; T/C (dose: 74.8 mg/kg/injection, schedule: Q04DX003 (ip), vehicle: other): 212 % of control; T/C (dose: 82.9 mg/kg/injection, schedule: Q01DX009 (oral), vehicle: other): 109 % of control; T/C (dose: 100.0 mg/kg/injection, schedule: Q01DX001 (ip), vehicle: other): 164 % of control; T/C (dose: 111.6 mg/kg/injection, schedule: Q04DX003 (ip), vehicle: other): 210 % of control; T/C (dose: 125.0 mg/kg/injection, schedule: Q01DX005 (ip), vehicle: saline with Tween-80): 156 % of control; T/C (dose: 150.0 mg/kg/injection, schedule: Q01DX001 (ip), vehicle: other): 205 % of control; T/C [1]: 117 % of control

Q: For `COc1ccc(C/C=N/O)c(OC)c1`, which T/C (dose: 12.5 mg/kg/injection, schedule: Q01DX009 (ip), vehicle: other) is on record?
A: The T/C was 91 % of control.

Q: And the T/C (dose: 25.0 mg/kg/injection, schedule: Q01DX009 (ip), vehicle: other)?
A: The T/C was 89 % of control.

Q: And the T/C (dose: 100.0 mg/kg/injection, schedule: Q01DX009 (ip), vehicle: other)?
A: The T/C was 93 % of control.

Q: For `CC(C)(OCc1ccccc1)c1ccccc1[P+](C)(c1ccccc1)c1ccccc1`, which T/C (dose: 100.0 mg/kg/injection, schedule: Q01DX001 (ip), vehicle: Klucel (hydroxypropylcellulose) (HPC)) is on record?
A: Its T/C is 109 % of control.

Q: What about the T/C (dose: 200.0 mg/kg/injection, schedule: Q01DX001 (ip), vehicle: Klucel (hydroxypropylcellulose) (HPC)) of the same molecule?
A: Its T/C is 113 % of control.

Q: Which results are given for `CC(C)(C)OC(=O)N1CC(O)CC1C(=O)O` (stereo not drawn)?
A: T/C (dose: 50.0 mg/kg/injection, schedule: Q01DX005 (ip), vehicle: saline): 91 % of control; T/C (dose: 100.0 mg/kg/injection, schedule: Q01DX005 (ip), vehicle: saline): 91 % of control

Q: How did the T/C (dose: 50.0 mg/kg/injection, schedule: Q01DX009 (ip), vehicle: Klucel (hydroxypropylcellulose) (HPC)) turn out when `Nc1ncncc1-c1ccc2ccccc2c1` was run?
A: The T/C was 95 % of control.

Q: And the T/C (dose: 100.0 mg/kg/injection, schedule: Q01DX009 (ip), vehicle: Klucel (hydroxypropylcellulose) (HPC))?
A: The T/C was 92 % of control.

Q: And the T/C (dose: 200.0 mg/kg/injection, schedule: Q01DX009 (ip), vehicle: Klucel (hydroxypropylcellulose) (HPC))?
A: The T/C was 96 % of control.

Q: Which results are given for `CCC(C)Nc1c(N)cc(C(F)(F)F)cc1N` (stereo not drawn)?
A: T/C (dose: 60.0 mg/kg/injection, schedule: Q01DX005 (ip), vehicle: Klucel (hydroxypropylcellulose) (HPC)): 98 % of control; T/C (dose: 120.0 mg/kg/injection, schedule: Q01DX005 (ip), vehicle: Klucel (hydroxypropylcellulose) (HPC)): 97 % of control; T/C (dose: 240.0 mg/kg/injection, schedule: Q01DX005 (ip), vehicle: Klucel (hydroxypropylcellulose) (HPC)): 99 % of control

Q: Which T/C [2] does the source give for `Nc1ccc(OCCNC(=O)c2ccc(S(=O)(=O)F)cc2)c(Cl)c1` here?
A: Its T/C is 90 % of control.

Q: What about the T/C (dose: 200.0 mg/kg/injection, schedule: Q01DX001 (ip), vehicle: saline with Tween-80) of the same molecule?
A: Its T/C is 100 % of control.

Q: And the T/C (dose: 400.0 mg/kg/injection, schedule: Q01DX001 (ip), vehicle: saline with Tween-80)?
A: Its T/C is 104 % of control.

Q: Which T/C (dose: 100.0 mg/kg/injection, schedule: Q04DX003 (ip), vehicle: saline with Tween-80) does the source give for `CSC(=S)c1c(C)cccc1C` here?
A: Its T/C is 110 % of control.

Q: And the T/C (dose: 200.0 mg/kg/injection, schedule: Q04DX003 (ip), vehicle: saline with Tween-80)?
A: Its T/C is 100 % of control.

Q: And the T/C (dose: 400.0 mg/kg/injection, schedule: Q04DX003 (ip), vehicle: saline with Tween-80)?
A: The T/C was 113 % of control.

Q: `O=c1[nH]cc(CSc2ncc[nH]2)c(=O)[nH]1` was tested. Which T/C (dose: 30.0 mg/kg/injection, schedule: Q01DX005 (ip), vehicle: saline) did it give?
A: Its T/C is 119 % of control.

Q: What about the T/C (dose: 60.0 mg/kg/injection, schedule: Q01DX005 (ip), vehicle: saline with Tween-80) of the same molecule?
A: Its T/C is 119 % of control.

Q: What about the T/C (dose: 60.0 mg/kg/injection, schedule: Q01DX005 (ip), vehicle: saline) of the same molecule?
A: The T/C was 124 % of control.

Q: For `O=C(O)CC1C=CC2C=CC1C=C2` (stereo not drawn), which T/C (dose: 50.0 mg/kg/injection, schedule: Q01DX005 (ip), vehicle: saline with Tween-80) is on record?
A: Its T/C is 101 % of control.

Q: What about the T/C (dose: 100.0 mg/kg/injection, schedule: Q01DX005 (ip), vehicle: saline with Tween-80) of the same molecule?
A: The T/C was 100 % of control.

Q: And the T/C [1]?
A: Its T/C is 99 % of control.

Q: With `CC(C)=CCc1c(C)c(O)c(C)c(C)c1O` as the molecule, how does the T/C (dose: 12.5 mg/kg/injection, schedule: Q01DX009 (ip), vehicle: distilled water + Tween-80 + alcohol) read?
A: Its T/C is 100 % of control.

Q: And the T/C (dose: 25.0 mg/kg/injection, schedule: Q01DX009 (ip), vehicle: distilled water + Tween-80 + alcohol)?
A: The T/C was 92 % of control.

Q: And the T/C (dose: 50.0 mg/kg/injection, schedule: Q01DX009 (ip), vehicle: distilled water + Tween-80 + alcohol)?
A: Its T/C is 100 % of control.

Q: And the T/C (dose: 100.0 mg/kg/injection, schedule: Q01DX009 (ip), vehicle: distilled water + Tween-80 + alcohol)?
A: Its T/C is 95 % of control.

Q: What about the T/C (dose: 200.0 mg/kg/injection, schedule: Q01DX009 (ip), vehicle: distilled water + Tween-80 + alcohol) of the same molecule?
A: The T/C was 104 % of control.

Q: `Cn1c2ccc([N+](=O)[O-])cc2c(=O)c2c(O)cc3c(c21)C=CC(C)(C)O3` was tested. Which T/C (dose: 25.0 mg/kg/injection, schedule: Q01DX001 (ip), vehicle: saline with Tween-80) did it give?
A: The T/C was 97 % of control.

Q: What about the T/C (dose: 50.0 mg/kg/injection, schedule: Q01DX001 (ip), vehicle: saline with Tween-80) of the same molecule?
A: The T/C was 97 % of control.

Q: What about the T/C [2] of the same molecule?
A: Its T/C is 89 % of control and 95 % of control.

Q: What does the source list for `CC1(C)OC2C(COC(=O)c3ccccc3)OC(n3cnc4c(=NC(=O)c5ccccc5)n(C(=O)c5ccccc5)cnc43)C2O1` (stereo not drawn)?
A: T/C [3]: 94 % of control; T/C [4]: 94 % of control

Q: Which results are given for `CC1=NC2=CC=CC3=NC(C(Cl)(Cl)Cl)=NC(=N1)N23`?
A: T/C (dose: 60.0 mg/kg/injection, schedule: Q01DX005 (ip), vehicle: Klucel + Tween-80): 102 % of control; T/C (dose: 120.0 mg/kg/injection, schedule: Q01DX005 (ip), vehicle: Klucel + Tween-80): 102 % of control; T/C (dose: 240.0 mg/kg/injection, schedule: Q01DX005 (ip), vehicle: Klucel + Tween-80): 102 % of control

Q: How did the T/C [3] turn out when `COc1ccc(-c2cc(-c3ccc(OC)cc3)nc(-c3ccc(OC)cc3)c2)cc1` was run?
A: The T/C was 98 % of control.

Q: What about the T/C [4] of the same molecule?
A: Its T/C is 94 % of control.

Q: What about the T/C (dose: 200.0 mg/kg/injection, schedule: Q01DX005 (ip), vehicle: Klucel (hydroxypropylcellulose) (HPC)) of the same molecule?
A: The T/C was 89 % of control.
